Here are results for 4 molecules from patent US20100160262A1, “COMPOSITIONS AND METHODS FOR MODULATING SIRTUIN ACTIVITY” (priority 2008, published 2010).

The subject of assay [1] is HIV LTR luciferase (Tat/AcTat transactivation). As to the kind of experiment: Nuclear microinjection of synthetic Tat or AcTat with HIV LTR luciferase reporter into HeLa cells. In kind it is cell-based. The conditions noted are these: for basal HIV promoter activity / transcriptional activity of AcTat (transactivation of the HIV promoter): TSA 400 nM or nicotinamide 5 mM for four hours, siRNA 48 hours before microinjection. The procedure:
Subconfluent MEFs (70%) were grown on Cellocate coverslips (Eppendorf, Westbury, N.Y.), and nuclear microinjections were performed at room temperature with an automated injection system (Eppendorf Micromanipulator 5171 together with Eppendorf Transjector 5246). Samples were prepared as a 20 μl injection mix containing the HIV LTR luciferase reporter or 5xUAS luciferase (each 100 ng/μl), RSV-Tat (10 ng/μl) or Ga14-VP16 (50 ng/μl), CMV-CyclinT1 (100 ng/μl), CMV-SIRT1 (100 or 300 ng/μl) together with CMV-GFP (50 ng/μl) in sterile water. Six hours after microinjection, cells were examined under a Nikon Eclipse TE300 inverted fluorescent microscope to determine the number of GFP-positive cells, washed in cold phosphate buffer, and stored at −70° C. for luciferase assays (Promega). In HeLa cells, synthetic Tat or AcTat proteins (each 30 or 100 ng/μl) were co-injected with the wildtype or mutant HIV LTR luciferase reporters (each 100 ng/μl) together with CMV-GFP (50 ng/μl) and harvested four hours after injection. Cells were treated immediately after injection with 5,6-dichlorobenzimidazole riboside (DRB; 10 or 50 μM; Sigma), TSA (400 nM), or nicotinamide (5 mM). Microinjections in siRNA-treated cells were performed 48 hours after siRNA transfection.
For orientation: A reporter such as luciferase makes a cellular process visible.

A further assay addresses T1, SIRT1 (Homo sapiens, UniProt Q96EB6).
T1 construct: made in house; host or cells: 293 cells (HEK 293), transient transfection, anti-FLAG M2 agarose immunoprecipitate
T1 sequence (Q96EB6 1-747): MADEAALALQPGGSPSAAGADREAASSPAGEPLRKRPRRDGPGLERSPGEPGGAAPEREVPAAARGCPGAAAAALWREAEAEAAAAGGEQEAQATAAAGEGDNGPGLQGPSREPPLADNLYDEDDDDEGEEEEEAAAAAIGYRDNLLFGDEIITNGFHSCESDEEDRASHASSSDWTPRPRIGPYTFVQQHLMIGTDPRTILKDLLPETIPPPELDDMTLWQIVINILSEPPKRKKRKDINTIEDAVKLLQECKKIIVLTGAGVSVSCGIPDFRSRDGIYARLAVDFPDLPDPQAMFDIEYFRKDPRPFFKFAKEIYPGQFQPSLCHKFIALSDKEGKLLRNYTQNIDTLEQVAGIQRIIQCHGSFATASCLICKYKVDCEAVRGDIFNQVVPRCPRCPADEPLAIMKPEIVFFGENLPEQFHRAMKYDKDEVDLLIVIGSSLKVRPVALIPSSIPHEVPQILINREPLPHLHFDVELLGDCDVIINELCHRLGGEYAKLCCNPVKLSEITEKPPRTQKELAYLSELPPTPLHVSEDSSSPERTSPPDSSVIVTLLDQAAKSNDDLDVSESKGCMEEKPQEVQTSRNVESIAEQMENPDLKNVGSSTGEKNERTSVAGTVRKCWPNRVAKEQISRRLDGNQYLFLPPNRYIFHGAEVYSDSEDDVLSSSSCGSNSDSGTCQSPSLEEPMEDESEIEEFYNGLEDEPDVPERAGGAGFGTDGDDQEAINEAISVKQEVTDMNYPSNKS
The assay can be described thus: In vitro Tat deacetylation assay with immunoprecipitated SIRT1. The conditions noted are these: immunoprecipitated SIRT1, AcTat, NAD+; western blot α-AcTat; nicotinamide 5 mM, TSA 400 nM. In kind it is biochemical. The procedure:
Human SIRT1-7 FLAG-tagged plasmids were transfected in 293 cells with lipofectamine reagent (Invitrogen). Cells were lysed 24 hours after transfection with lysis buffer (50 mM Tris-Hcl, pH 7.5, 0.5 mM EDTA, 0.5% NP40, 150 mM NaCl) in the presence of protease inhibitors (Roche Molecular Biochemicals, Indianapolis, Ind.). Equal amounts of total proteins were immunoprecipitated with α-FLAG (anti-FLAG antibody) coupled to M2 agarose beads (Sigma, St Louis, Mo.), for 2 hours at 4° C. Immunoprecipitated material was washed twice with immunoprecipitation (IP) buffer and one time with SIRT deacetylation buffer (50 mM Tris-HCl pH 9, 4 mM MgCl2, 0.2 mM DTT). The beads were resuspended in 100 μl SIRT deacetylation buffer containing 1 μg synthetic Tat (72 amino acids) carrying an N-terminal biotin label and an acetyl group at position 50. Kaehlcke et al. (2003), supra. Reactions containing TSA (400 nM, WACO Bioproducts, Richmond, Va.) or nicotinamide (5 mM, Sigma) were preincubated for 10 min at room temperature. […] Reactions were stopped by the addition of SDS loading buffer, boiled, and after brief centrifugation, analyzed by western blotting with rabbit α-AcTat antibodies (Kaehlcke et al. (2003), supra) or horseradish peroxidase-conjugated streptavidin (Jackson Immunoresearch Laboratories, West Grove, Pa.). SIRT1-7 proteins were detected with polyclonal α-FLAG antibodies (Sigma).
For orientation: A western blot detects proteins with antibodies after separation by electrophoresis.

Assay [2] concerns Tat-dependent HIV transcription (HIV LTR luciferase). As to the kind of experiment: Tat transactivation of HIV LTR luciferase reporter in transfected HeLa cells. In kind it is cell-based. The note with it: ~1 μM, 8 hours. As to the method:
(§1) In co-transfection experiments, human CMV-SIRT1 or CMV-SIRT1H363Y (600 ng) was co-transfected into HeLa cells plated in six-well plates with the HIV LTR luciferase reporter (200 ng) or the LTRΔNF-kB-luciferase reporter (200 ng) and increasing amounts of RSV-Tat (0 ng, 2 ng, 20 ng, and 200 ng) using the lipofectamine reagents (Invitrogen). In the control experiment, RSV-Tat was replaced by RSV luciferase (200 ng), and the HIV LTR luciferase construct was replaced by the HIV LTR CAT reporter. […] The RSV-luciferase construct was used as described above. […] Cells were harvested 8 hr later and processed for luciferase assays.

In another assay the test system is p53. As to the kind of experiment: p53 acetylation. In kind it is cell-based. The conditions noted are these: 1 μM.
For assay [3], the system named is EF-1α promoter GFP expression. As to the kind of experiment: HIV-based lentiviral vector with EF-1α promoter driving GFP in Jurkat T cells. In kind it is cell-based. The note with it: 1 μM, 36 hours. The procedure:
(§2) The HIV molecular clone (HIV-R7/E^−/GFP) containing the GFP open reading frame in place of the nef gene and a frameshift mutation in the env gene as well as the method to generate pseudotyped viral particles with VSV-G was previously described. Jordan et al. (2003) Embo J 22: 1868-1877. The number of infective particles per ml was established by infecting 3×10^5 Jurkat cells with different amounts of viral suspension. The titer of the viral stock was measured by flow cytometry analysis of GFP expression 48 hours after infection. The pHR′-EF-1α/GFP construct is a minimal nonreplicative HIV-1 genome containing a heterologous promoter (EF-1α) driving GFP expression. Naldini et al. (1996) Science 272: 263-267. […]. Zufferey et al. (1997) Nat Biotechnol 15: 871-875. All vectors for the production of HIV-based lentiviral vectors were provided by D. Trono, University of Geneva, Switzerland. Jurkat T cells were incubated overnight with HIV-R7/E^−/GFP or pHR′-EF-1α/GFP viral particles at a theoretical multiplicity of infection (m.o.i.) of 0.5 in 24-well plates. […] Viral infection was monitored 36 hours later by flow cytometry analysis using a Calibur FACScan (Becton Dickinson).

The test system of the next assay is RSV LTR. As to the kind of experiment: RSV luciferase control reporter in transfected HeLa cells. In kind it is cell-based, Rous sarcoma virus. The conditions noted are these: 1 μM. As to the method: as §1
Assay [4] concerns HIVNL4-3 containing the GFP open reading frame in place of nef. As to the kind of experiment: Single-cycle HIV infection of Jurkat T cells, GFP expression by flow cytometry. In kind it is cell-based. The note with it: 1 μM, 36 hours after overnight infection. As to the method:
as §2
(Flow cytometry measures light scatter and fluorescence of single cells or particles in a stream.)

Molecules are shown by their SMILES.

For the molecule `OC[C@H]1O[C@@H](n2cnc3cc(Cl)c(Cl)cc32)[C@H](O)[C@@H]1O` [DRB, 5,6-dichlorobenzimidazole riboside], the “transactivation by both Tat proteins (Tat and AcTat)” value in assay [1] (DRB 10 or 50 μM, four hours) is “inhibited in a dose-dependent manner”.

As to `NC(=O)c1cccnc1` [nicotinamide], at SIRT1, the “SIRT1-mediated deacetylation of Tat” value is given as “completely inhibited”. In assay [1], the “basal HIV promoter activity” value was “stimulating” and the “transcriptional activity of AcTat (transactivation of the HIV promoter)” value is given as “blocked”.

Consider `O=C1Oc2ccc3cc(Br)ccc3c2CC1c1ccccc1` (stereo not drawn) [HR73], for which the “suppression of Tat-dependent HIV transcription” value in assay [2] came to 3 fold. Further, in the assay on p53, the “acetylation of p53” value was “induced hyperacetylation”. In addition, the “GFP expression from the EF-1α promoter” value in assay [3] is “not affected”. For the same molecule, the “activity of the RSV LTR” value in the assay with RSV LTR is “did not suppress”. For the same molecule, in assay [4], the “reduction of HIV gene expression as measured by GFP expression” value amounted to 5 fold.

With `CC(/C=C/C(=O)NO)=C\[C@@H](C)C(=O)c1ccc(N(C)C)cc1` [TSA], the “SIRT1-mediated deacetylation of Tat” value on SIRT1 is given as “no effect”. Further, in assay [1], the “basal HIV promoter activity” value is “enhanced” and the “transcriptional activity of AcTat (transactivation of the HIV promoter)” value is on record as “enhanced”.
